The values that follow come from patent US20080262097A1, “Formulations” (priority 2005, published 2008).

Each structure is given as a SMILES string. Values after ≈ are worked out from the molar mass of the structure shown. Where two headings read alike, the source gives them in different places.

One test has as its system P. acnes PRP-023. Description: MIC assay. Format: cell-based, Propionibacterium acnes. Particulars: Cutibacterium acnes, PRP023; P. acnes PRP-023 (resistance MLSK). As for the experimental part:
(§1) The Propionibacterium spp organisms were cultured and maintained on Wilkins-Chalgren Anaerobe Medium (agar and broth) at pH 6.0; cultures were incubated anaerobically at 37° C. for 72 hours.
(§2) This is a standard international method for quantitatively assessing the antimicrobial activity of a compound in a liquid medium. The method used a 96-well microtitre plate, capable of holding about 200 μl of liquid per well. […] The culture media were as described above for the relevant test organisms.
(§3) The wells were inoculated with a liquid suspension of freshly grown micro-organism and incubated under the conditions described above. After incubation, the microtitre plate was examined visually (with the aid of a light box) for cell pellets in and/or opaque wells, which would indicate microbial growth. The MIC value was recorded as the lowest concentration of test compound required to inhibit microbial growth, ie, the lowest concentration for which the liquid in the well remained clear.
(§4) The assays were conducted in duplicate and included both negative (culture medium only) and positive (culture medium, diluting solvent and inoculum) controls.

The subject of a further test is P. acnes PRP-059. As to the kind of experiment: MIC assay. Format: cell-based, Propionibacterium acnes. Particulars: Cutibacterium acnes, PRP059; P. acnes PRP-059 (resistance MLS). As for the experimental part:
as §1, §2, §3, §4

The subject of another test is P. acnes PRP-008. As to the kind of experiment: MIC assay. Type of test: cell-based, Propionibacterium acnes. Particulars: Cutibacterium acnes, PRP008; P. acnes PRP-008 (resistance Clin). As for the experimental part: as §1, §2, §3, §4
Test [1] has as its system S. aureus CPHL EMRSA 15. As to the kind of experiment: MIC assay. Format: cell-based. To be noted: Staphylococcus aureus. As for the experimental part:
(§5) Other staphylococcal strains were also tested, as described in Example 5 below. These included certain antibiotic resistant staphylococci, such as the methicillin resistant S. aureus (MRSA) strains EMRSA-15 and EMRSA-16, both available from the Central Public Health Laboratory (CPHL), Colindale, UK. These strains are resistant not only to all beta-lactams but also to a number of other antibiotics in clinical use, making them a serious threat to human health. They are also responsible for the majority (>95%) of hospital-acquired MRSA infections in the UK.
(§6) The staphylococci and enterococci were cultured and maintained on Mueller-Hinton Medium (agar and broth) at pH 7.2; they were incubated aerobically at 37° C. for 24 hours.
as §2, §3, §4

Test [2] concerns S. aureus CPHL EMRSA 16. Description: MIC assay. Format: cell-based. To be noted: Staphylococcus aureus. How it is done: as §5, §6, §2, §3, §4
For the next test, the system named is P. acnes PRP-053. Description: Disc diffusion assay (DDA). To be noted: zone diameter, 200 μg per disc. Type of test: cell-based, Propionibacterium acnes. How it is done:
(§7) Other propionibacterial strains were also tested, as described in Example 8 below. These included certain antibiotic resistant propionibacteria, such as the two P. acnes strains PRP-010 and PRP-053 which are resistant respectively to macrolides-lincosamides-streptogramins-ketolides (MLSK) and to macrolides-lincosamides-streptogramins (MLS) and tetracycline—in other words, PRP-010 is resistant to erythromycin and clindamycin, and […] to erythromycin, clindamycin and tetracycline.
as §1
(§8) A sterile paper disc was impregnated with a sample of the test compound and a minimum of 30 minutes allowed for the solvents to evaporate as far as possible. The disc was then placed on an agar plate onto which the test micro-organism had been inoculated. The plate was then incubated under the conditions described above, following which it was examined visually for signs of bacterial growth. If the test compound had antimicrobial activity, a circular zone of no growth would be obtained around the disc. The diameter of this zone of “inhibition” was measured using a ProtoCOL™ automated zone sizer (Synbiosis, Cambridge, UK). In general, a greater diameter and/or area of the zone of inhibition indicates a greater antimicrobial activity in the relevant test compound, although other factors such as test compound mobility through the agar gel may also influence the result.
(§9) The area of the zone of inhibition was calculated from the measured zone diameter (D) using the formula π(D/2)^2.

Another test relates to P. acnes PRP-010. Description: Disc diffusion assay (DDA). Format: cell-based, Propionibacterium acnes. To be noted: zone diameter, 200 μg per disc. As for the experimental part: as §7, §1, §8, §9
On the technique in general: A growth-free zone around the sample is the usual read-out of agar diffusion tests.

Test [3] concerns S. aureus CPHL EMRSA 15. Description: MBC assay. Format: cell-based. Particulars: Staphylococcus aureus. How it is done: as §5, §6
(§10) This assay, normally carried out after an MIC assay, determines the minimum concentration of a compound that is lethal to the micro-organism being tested.
(§11) These samples were then individually sub-cultured on non-selective agar medium, under the incubation conditions described above. Following incubation they were examined visually for bacterial growth.

In test [4] the test system is S. aureus CPHL EMRSA 16. As to the kind of experiment: MBC assay. Type of test: cell-based. To be noted: Staphylococcus aureus; S. aureus CPHL EMRSA 16 (resistance Met/β-lactams). As for the experimental part: as §5, §6, §10, §11
The test system of a further test is P. granulosum PRP-043. Description: MBC assay. To be noted: P. granulosum PRP-043 (resistance MLS). Type of test: cell-based. As for the experimental part: as §1, §10, §11
Another test deals with P. granulosum PRP-044. As to the kind of experiment: MBC assay. Type of test: cell-based. To be noted: P. granulosum PRP-044 (resistance MLS). How it is done: as §1, §10, §11
The subject of the next test is P. granulosum PRP-005. Description: MBC assay. Format: cell-based. To be noted: P. granulosum PRP-005 (resistance MLSK). As for the experimental part:
as §1, §10, §11

Another test has as its system P. granulosum NCTC 11865. Description: MBC assay. Format: cell-based. To be noted: P. granulosum NCTC 11865 (resistance None). How it is done: as §1, §10, §11
For another test, the system named is P. avidum ATCC 25577. As to the kind of experiment: MBC assay. To be noted: Cutibacterium avidum, ATCC25577. Format: cell-based. As for the experimental part:
as §1, §10, §11

The test system of a further test is P. granulosum PRP-055. As to the kind of experiment: MBC assay. Particulars: P. granulosum PRP-055 (resistance None). Type of test: cell-based. How it is done:
as §1, §10, §11

In test [5] the test system is Staphylococcus xylosus ATCC 29971. As to the kind of experiment: Disc diffusion assay (DDA). To be noted: zone diameter, 200 μg per disc. Format: cell-based. How it is done:
as §6, §8, §9

The test system of test [6] is S. epidermidis (NCTC 11047). As to the kind of experiment: Disc diffusion assay (DDA). Format: cell-based. Particulars: zone diameter, 200 μg per disc. How it is done:
as §6, §8, §9

The subject of test [7] is Staphylococcus hominis ATCC 27844. Description: Disc diffusion assay (DDA). Type of test: cell-based. To be noted: zone diameter, 200 μg per disc. How it is done:
as §6, §8, §9

The subject of test [8] is S. saprophyticus NCTC 7292. Description: Disc diffusion assay (DDA). Particulars: zone diameter, 200 μg per disc. Format: cell-based. How it is done:
as §6, §8, §9

In test [9] the test system is Staphylococcus aureus ATCC 12600. Description: Disc diffusion assay (DDA). Type of test: cell-based. To be noted: zone diameter, 200 μg per disc. As for the experimental part: as §6, §8, §9
Test [10] relates to Staphylococcus capitis ATCC 27840. Description: Disc diffusion assay (DDA). To be noted: zone diameter, 200 μg per disc. Format: cell-based. How it is done:
as §6, §8, §9

The subject of test [11] is Staphylococcus auricularis ATCC 33753. Description: Disc diffusion assay (DDA). Format: cell-based. To be noted: zone diameter, 200 μg per disc. As for the experimental part:
as §6, §8, §9

For the compound `O=C(OOC(=O)c1ccccc1)c1ccccc1` [benzoyl peroxide], the MIC against P. acnes PRP-023 was 31.2 µg/mL (≈ 129 µM); in the test on P. acnes PRP-059, 62.5 µg/mL (≈ 258 µM); in the test with P. acnes PRP-008, 31.2 µg/mL (≈ 129 µM); in the test on S. aureus CPHL EMRSA 15 [1], 125 µg/mL (≈ 516 µM); in the test with S. aureus CPHL EMRSA 16 [2], 125 µg/mL (≈ 516 µM). In addition, the DDA in the test with P. acnes PRP-053 is 29.72 (±0.48) mm; in the test with P. acnes PRP-010, 30.39 (±0.82) mm; in test [5], 10.99 mm; in [6], 10.65 mm; in test [7] it was 11.83 mm; in test [8] it was 11.38 mm. Besides, the values for the DDA in test [9], in test [10] and in test [11] were 11.99 mm, 12.46 mm and 21.56 mm, respectively. In addition, the MBC in the test on S. aureus CPHL EMRSA 15 [3] is 125 to 250 µg/mL (≈ 516 to 1030 µM); in the test on S. aureus CPHL EMRSA 16 [4], 250 µg/mL (≈ 1030 µM); in the test with P. granulosum PRP-043, 62.5 µg/mL (≈ 258 µM); against P. granulosum PRP-044, 31.2 µg/mL (≈ 129 µM); with P. granulosum PRP-005, 15.6 µg/mL (≈ 64.4 µM); in the test on P. granulosum NCTC 11865, 15.6 µg/mL (≈ 64.4 µM). The MBC in the test with P. avidum ATCC 25577 was found to be 62.5 µg/mL (≈ 258 µM); against P. granulosum PRP-055, 15.6 µg/mL (≈ 64.4 µM).

With `CC(C)(C)c1cc(O)ccc1O` [TBHQ, t-butyl hydroquinone], the MIC against P. acnes PRP-023, against P. acnes PRP-059, against P. acnes PRP-008, in the test on S. aureus CPHL EMRSA 15 [1] and in the test with S. aureus CPHL EMRSA 16 [2] was 3.9 µg/mL (≈ 23.5 µM) in each case. In addition, the DDA is reported as 23.49 (±1.44) mm in the test on P. acnes PRP-053; 18.71 (±0.18) mm with P. acnes PRP-010; 49.72 mm in test [5]; 57.34 mm in test [6]; 64.59 mm in test [7]; 41.67 mm in test [8]. In addition, the DDA was determined as 49.24 mm in test [9], 73.90 mm in test [10] and 80.18 mm in [11]. Further, the MBC in the test with S. aureus CPHL EMRSA 15 [3] (S. aureus CPHL EMRSA 15 (resistance Met/β-lactams), read-out: MBC) was found to be 3.9 µg/mL (≈ 23.5 µM); against S. aureus CPHL EMRSA 16 [4], 3.9 µg/mL (≈ 23.5 µM); in the test on P. granulosum PRP-043, 15.6 µg/mL (≈ 93.9 µM); with P. granulosum PRP-044, 31.2 µg/mL (≈ 188 µM); in the test with P. granulosum PRP-005, 62.5 µg/mL (≈ 376 µM); in the test on P. granulosum NCTC 11865 it was 7.8 µg/mL (≈ 46.9 µM). The MBC in the test with P. avidum ATCC 25577 (P. avidum ATCC 25577 (resistance None), read-out: MBC) was 3.9 µg/mL (≈ 23.5 µM); in the test with P. granulosum PRP-055 it was 7.8 µg/mL (≈ 46.9 µM).

The MIC is the smallest concentration in the dilution series that meets the test's criterion for growth inhibition. For orientation: MBC means the smallest concentration meeting the test's criterion for killing.
